ChEMBL document CHEMBL1154967, “Bioactive bromophycolides R-U from the Fijian red alga Callophycus serratus” (J Nat Prod, 2010)
≈ marks a conversion by molar mass, not a printed value.

What was measured:
[1] = system: Plasmodium falciparum; assay: Antimalarial activity against Plasmodium falciparum assessed as SYBR Green uptake after 48 hrs; assay type: functional, organism-based
[2] = system: Staphylococcus aureus; assay: Antibacterial activity against methicillin resistant Staphylococcus aureus ATCC 33591; assay type: functional, organism-based
[3] = system: Enterococcus faecium; assay: Antibacterial activity against vancomycin resistant Enterococcus faecium ATCC 700221; assay type: functional, organism-based
[4] = system: Mycobacterium tuberculosis; assay: Antitubercular activity against Mycobacterium tuberculosis […] ATCC 27294 after 4 days by microplate alamar blue assay; assay type: functional; conditions: 96 h
[5] = system: Candida albicans; assay: Antifungal activity against amphotericin resistant Candida albicans ATCC 90873 after 12 to 15 hrs by Alamar Blue assay; assay type: functional, organism-based

For `CC1=CC[C@H](Br)[C@@]2(C)CC[C@@H](Br)[C@@]3(C)CC[C@H](OC(=O)c4ccc(O)c(c4)C[C@H]12)C(C)(C)O3` [BROMOPHYCOLIDE U], the IC50 [1] was 2.1 µM, the IC50 [2] was 0.9 µM and the IC50 [3] was 0.9 µM. The MIC [4] was 22 µM (≈ 12.9 µg/mL) and the IC50 [5] was > 15 µM.

`C=C1CC[C@H](Br)[C@@]2(C)CC[C@@H]3O[C@@]3(C)CC[C@@H](C(C)(C)Br)OC(=O)c3ccc(O)c(c3)C[C@H]12` [BROMOPHYCOLIDE S] was tested, and the IC50 [1] was 0.9 µM, the IC50 [2] was > 15 µM and the IC50 [3] was 3.8 µM. The MIC [4] was 23 µM (≈ 13.4 µg/mL) and the IC50 [5] was > 15 µM.

For `C=C(C)[C@@H]1CC[C@]2(C)O[C@H]2CC[C@@]2(C)[C@H](Cc3cc(ccc3O)C(=O)O1)C(=C)CC[C@@H]2Br` [BROMOPHYCOLIDE R], the IC50 [1] was 1.7 µM, the IC50 [2] was > 15 µM and the IC50 [3] was > 15 µM. For the same molecule, the MIC [4] was > 50 µM and the IC50 [5] was > 15 µM.
